Reference: article PMC3971757 (Journal of Natural Products, 2013)

Experiments:
[1] = biological target: NA of influenza virus A PR/8/34 (Influenza A virus, UniProt P03468); assay: biochemical; parameters: species or system influenza A virus H1N1 (A/PR/8/34); details: 50% NA inhibitory concentration against influenza virus A PR/8/34
[2] = biological target: NA of influenza virus A HK/68 (Influenza A virus, UniProt Q91MA2); assay: biochemical; parameters: species or system influenza A virus H3N2 (A/HongKong/68)
[3] = test system: NA of influenza virus A/PR/8/34 (H1N1); details: FL-based NA inhibition assay; cited from earlier work
[4] = test system: NA of influenza virus A/Jinan/15/90 (H3N2); details: FL-based NA inhibition assay; cited from earlier work
[5] = test system: NA of influenza virus B/Jiangsu/10/2003; details: FL-based NA inhibition assay; cited from earlier work
NA of PR/8/34 = details: read-out: IC50 NA inhibition (PR/8/34); earlier study; cited from earlier work

Chain of NA of influenza virus A PR/8/34 (P03468 whole entry, looked up): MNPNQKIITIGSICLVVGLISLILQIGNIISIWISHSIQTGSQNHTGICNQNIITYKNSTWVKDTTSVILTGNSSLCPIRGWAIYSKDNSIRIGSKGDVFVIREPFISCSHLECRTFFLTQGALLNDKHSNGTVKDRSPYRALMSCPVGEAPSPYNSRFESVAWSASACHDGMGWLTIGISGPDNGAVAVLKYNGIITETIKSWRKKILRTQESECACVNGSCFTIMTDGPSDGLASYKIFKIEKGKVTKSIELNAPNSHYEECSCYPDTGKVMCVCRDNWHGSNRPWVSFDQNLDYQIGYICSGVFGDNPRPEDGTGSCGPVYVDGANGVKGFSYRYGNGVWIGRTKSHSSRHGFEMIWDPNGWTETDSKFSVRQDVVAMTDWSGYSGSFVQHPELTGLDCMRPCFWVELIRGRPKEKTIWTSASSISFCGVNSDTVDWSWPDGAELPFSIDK
Chain of NA of influenza virus A HK/68 (Q91MA2 whole entry, looked up): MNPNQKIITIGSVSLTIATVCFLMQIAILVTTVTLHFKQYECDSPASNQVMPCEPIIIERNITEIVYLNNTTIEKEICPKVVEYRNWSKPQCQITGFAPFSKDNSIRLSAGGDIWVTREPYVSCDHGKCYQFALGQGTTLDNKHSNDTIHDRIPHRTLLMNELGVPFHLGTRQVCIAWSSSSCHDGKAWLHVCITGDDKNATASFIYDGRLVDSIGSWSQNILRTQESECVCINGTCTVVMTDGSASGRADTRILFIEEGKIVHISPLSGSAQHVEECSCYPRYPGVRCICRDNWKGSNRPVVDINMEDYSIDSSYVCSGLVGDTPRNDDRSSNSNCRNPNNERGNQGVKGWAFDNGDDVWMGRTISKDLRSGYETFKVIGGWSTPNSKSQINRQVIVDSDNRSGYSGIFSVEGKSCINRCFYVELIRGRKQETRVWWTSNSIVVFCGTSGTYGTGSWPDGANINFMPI

Row | SMILES | IC50 [1] | IC50 [2] | further results
1 | CC(C)=CCc1c(O)ccc(C(=O)/C=C/c2cc(O)c3c(c2)C=CC(C)(C)O3)c1O [Compound 1, (E)-1-[2,4-dihydroxy-3-(3-methyl-2-butenyl)phenyl]-3-(8-hydroxy-2,2-dimethyl-2H-1-benzopyran-6-yl)-2-propen-1-one] | 250 nM |  | 
2 | CC1(C)C=Cc2c(ccc3c2OCC(O)C3)O1 (stereo not drawn) [Compound 2, 3,4-dihydro-8,8-dimethyl-2H,8H-benzo[1,2-b:3,4-b′]dipyran-3-ol] | 6470 ± 2590 nM | 12.4 ± 4.14 µM | 
3 | COc1ccc(-c2coc3cc(O)ccc3c2=O)cc1 [Compound 3, biochanin B] | 1370 ± 220 nM |  | activity against the NA of influenza virus A/PR/8/34 (H1N1) [3]: weak activity; activity against the NA of influenza virus A/Jinan/15/90 (H3N2) [4]: weak activity; activity against the NA of influenza virus B/Jiangsu/10/2003 [5]: weak activity
4 | CC(C)=CCc1cc([C@@H]2CC(=O)c3ccc(O)c(CC=C(C)C)c3O2)ccc1O [Compound 4, glabrol] | 510 nM | 3.06 ± 1.21 µM | 
5 | CC1(C)C=Cc2c(ccc(-c3coc4cc(O)ccc4c3=O)c2O)O1 [Compound 5, glabrone] | 400 ± 170 nM | 5.34 ± 2.29 µM | 
6 | CC1(C)C=Cc2c(ccc([C@@H]3COc4c(ccc5c4C=CC(C)(C)O5)C3)c2O)O1 [Compound 6, hispaglabridin B] | 1110 ± 530 nM | 2.85 ± 1.58 µM | 
7 | O=C1C[C@@H](c2ccc(O)cc2)Oc2cc(O)ccc21 [Compound 10, liquiritigenin] | 2070 ± 370 nM |  | 
8 | O=C1C[C@@H](c2ccc(O[C@@H]3O[C@H](CO)[C@@H](O)[C@H](O)[C@H]3O)cc2)Oc2cc(O)ccc21 [Compound 11, liquiritin] | 83100 ± 17800 nM |  | activity against the NA of influenza virus A/PR/8/34 (H1N1) [3]: weak activity; activity against the NA of influenza virus A/Jinan/15/90 (H3N2) [4]: weak activity; activity against the NA of influenza virus B/Jiangsu/10/2003 [5]: weak activity
9 | O=C1C[C@@H](c2ccc(O)cc2)Oc2cc(O[C@@H]3O[C@H](CO)[C@@H](O)[C@H](O)[C@H]3O)cc(O)c21 [Compound 12, prunin] | 3000 ± 460 nM |  | 
10 | C=CCc1ccc(O)c(-c2ccc(O)c(CC=C)c2)c1 [Honokiol, honokiol, reference compound] | 3010 nM |  | 
11 | O=C(CCc1ccccc1)C[C@@H]1C[C@@H](c2ccccc2)c2c(cc(/C=C/c3ccccc3)oc2=O)O1 [Katsumadain A, katsumadain A] |  |  | IC50 (NA of PR/8/34): 1050 nM
